Data taken from article PMC5457702 (Molecular cancer therapeutics, 2017).
Like-named read-outs stand apart in the source and are kept apart here.

Assays:
[1] = tested on: MM1.S cells; assay: Flow cytometry cell cycle analysis, MM1.S; assay type: cell-based, human; conditions: 0.5 μM, 24 h
[2] = tested on: UKE-1 cells; assay: Cell viability; assay type: cell-based, human; conditions: read-out: Cell growth inhibition IC50, UKE-1
[3] = tested on: SAOS2 cells; assay: Cell viability; assay type: cell-based, human; conditions: for IC50: read-out: Cell growth inhibition IC50, SAOS2
[4] = tested on: MM1.S cells; assay: Cell viability; assay type: cell-based, human; conditions: 72 h, read-out: Cell growth inhibition IC50, MM1.S
[5] = tested on: HCC-78 cells; assay: Cell viability; assay type: cell-based, human; conditions: for IC50: read-out: Cell growth inhibition IC50, HCC78
[6] = tested on: c-MYC, p-STAT3, c-PARP levels in MM1.S cells; assay: Immunoblotting of biomarkers in MM1.S; assay type: cell-based, human; conditions: 6 h drug exposure
[7] = tested on: UKE-1 cells; assay: Development of drug resistance in UKE-1 cells; assay type: cell-based, human; conditions: two months, starting at IC20
[8] = molecular target: T1, BRD4-1 (Homo sapiens, UniProt O60885); assay: Differential scanning fluorimetry; assay type: binding; conditions: 100 μM inhibitor, 4 μM BRD4-1; mean of 3 experiments in quadruplicate
[9] = tested on: BRD4; conditions: read-out: IC50(BRD4); cited from earlier work
[10] = tested on: 931 cancer cell lines; assay: Cancer cell line screening; assay type: cell-based; conditions: 72 h, read-out: mean IC50 across cell line panel
[11] = molecular target: T1, BRD4-1; assay: qPCR binding assay, BRD4-1; conditions: read-out: BRD4-1 Kd, qPCR; single experiment in duplicate
[12] = molecular target: BRDT-1 (Homo sapiens, UniProt Q58F21); assay: Alpha Screen binding assay, BRDT-1; conditions: relative to BRD4

With `CC(C)(C)c1cc(NC(=O)Nc2ccc(-c3cn4c(n3)sc3cc(OCCN5CCOCC5)ccc34)cc2)no1` [Quizartinib] the “cell cycle effect / G1 arrest” value [1] was “only slightly affected”, the IC50 ([2]; Homo sapiens, UKE1, 72 h) was 9500 nM and the IC50 ([3]; Homo sapiens, SAOS-2, 72 h) was > 10000 nM. The IC50 ([4]; Homo sapiens, MM1.S) was > 10000 nM and the IC50 ([5]; Homo sapiens, HCC78, 72 h) was > 10000 nM.
With `N#CC[C@H](C1CCCC1)n1cc(-c2ncnc3[nH]ccc23)cn1` [Ruxolitinib] the “onset of apoptosis, c-PARP levels” value [6] was “ineffective”, the “cell cycle effect / G1 arrest” value [1] was “only slightly affected” and the IC50 ([2]; Homo sapiens, UKE1, 72 h) was 170 nM. The IC50 ([3]; Homo sapiens, SAOS-2, 72 h) was > 10000 nM, the IC50 ([4]; Homo sapiens, MM1.S) was > 10000 nM and the “development of resistance upon prolonged exposure” value [7] was “readily developed resistance”. For the same compound, the IC50 ([5]; Homo sapiens, HCC78, 72 h) was > 10000 nM.
For `Cc1cnc(Nc2ccc(N3CCN(C)CC3)cc2)nc1Nc1cccc(S(=O)(=O)NC(C)(C)C)c1` [TG101209], the “ΔTm, DSF” value [8] was 6.8 °C, the “cell cycle effect / G1 arrest” value [1] was “moderate increase of cells in G1” and the IC50 ([2]; 72 h, Cell titer blue) was 320 nM. For the same compound, the IC50 ([3]; 72 h, Cell titer blue) was 1500 nM, the IC50 ([4]; Cell titer blue) was 1400 nM and the “development of resistance upon prolonged exposure” value [7] was “readily developed resistance”. For the same compound, the IC50 [9] was […] and the IC50 ([5]; 72 h, Cell titer blue) was 1900 nM.
Compound `Cc1cnc(Nc2ccc(OCCN3CCCC3)cc2)nc1Nc1cccc(S(=O)(=O)NC(C)(C)C)c1` [TG101348] has an IC50 [10] of 10000 nM.
With (+)-JQ1 the “ΔTm, DSF” value [8] was 8.8 °C, the “onset of apoptosis, c-PARP levels” value [6] was “ineffective” and the IC50 ([2]; 72 h, Cell titer blue) was 210 nM. For the same compound, the “maximum fraction affected, SAOS-2” value ([3]; 72 h, Hill fit) was ~ 0.5, the IC50 ([3]; 72 h, Cell titer blue) was 1500 nM and the IC50 ([4]; Cell titer blue) was 100 nM. The Kd [11] was 9.1 nM, the “maximum fraction affected, HCC-78” value ([5]; 72 h, Hill fit) was ~ 0.5 and the IC50 ([5]; 72 h, Cell titer blue) was 2600 nM. For the same compound, the “fold less active against BRDT-1” value [12] was 7 fold.
